Measured values as given in patent US7595003B2, “On-board water treatment and management process and apparatus” (priority 2004, dated 2009).
Values joined by “and” are separate entries in the source; they are usually repeats but may differ in a detail not shown here. Identical values can stand only once.

What was measured:
[1] = system: bacteria and fungi; assay: flowing system (Phase II): culture tests for the presence of bacteria and fungi; format: cell-based; set-up: key to growth in TM (test medium) / growth in M (malt broth) / growth in PM (peptonemethylamine broth) / growth in P (peptone broth) / growth in BP: Bacterial growth (Bac); Phytoplankton (PHY)
Protocol: Bigelow Laboratory inoculated 200 μL of sample into various media the day after the samples were collected. The flow rate, water pressure (PSI), temperature, ultrasonic treatment system (UTS) and ozone treatment values were provided by ETI. The hydrogen ion concentration (pH) and salinity values were determined at Bigelow Laboratory. Culture treatments included tests for the presence of bacteria and fungi [peptonemethylamine broth (PM), peptone broth (P), test medium (TM), malt broth (M)] and tests for the presence of phytoplankton [DY-V medium, freshwater (DYV), K medium, oceanic (K), L1+NH4, coastal (L1+NH4), black sea medium, brackish at 16 psu (Blk Sea), L1/24 medium, coastal at 24 psu (L1/24), Prov medium, coastal enriched with soil extract (Prov)]. Bacterial growth (Bac) developed in all of the bacterial test media. Phytoplankton (PHY) grew in all algal growth media (see footnotes for details).
(§1) A summary of data is provided in Table 6, below, from a second batch of harbor water samples that were likewise examined by Bigelow Laboratory the day after they were collected. 200 μL of sample was inoculated into various media. The flow rate, water pressure (PS), temperature, ultrasonic treatment system (UTS) and ozone treatment values were provided by ETI. The hydrogen ion concentration (pH) and salinity values were determined at Bigelow Laboratory. Culture treatments included tests for the presence of bacteria and fungi [peptonemethylamine broth (PM), peptone broth (P), test medium (TM), malt broth (M)] and tests for the presence of phytoplankton [DY-V medium, freshwater (DYV), K medium, oceanic (K), L1+NH4, coastal (L1+NH4), black sea medium, brackish at 16 psu (Blk Sea), L1/24 medium, coastal at 24 psu (L1/24), Prov medium, coastal enriched with soil extract (Prov)]. Bacterial growth (Bac) developed in all of the bacterial test media. Zooflagellates (Zoo) grew in all algal growth media from inlet and strainer samples but none from the outlet samples.
as §1, with “In table 7, below, a” for “A”, “provided” for “provided in Table 6, below,”, “all” for “all of the bacterial”, “media without ozone treatment or growth (Bac) developed” for “media. Zooflagellates (Zoo) grew”, “test” for “algal growth”, “without ozone treatment or with a flow rate over 30 gpm.” for “from inlet and strainer samples but none from the outlet samples.”
as §1, with “In table 8, below, a” for “A”, “provided” for “provided in Table 6, below,”, “(PSI),” for “(PS),”, “Bacterial growth (Bac) developed in all of the bacterial test media. Zooflagellates (Zoo) grew in all algal growth media from inlet and strainer samples but none from the outlet samples.” left out

[2] = ozone mass transport into water in acoustic reactor; format: physicochemical; conditions: high acoustic intensity (215 dB) versus low acoustic intensity (205 dB, nominally same as sparger)
Protocol: Adopting the same approach as above, acoustic energy at 205 and 215 dB re 1 μPa at 75 Hz was supplied along with the ozone over the same range of concentration. The acoustic pressure signal of the sonic devices was detected with a hydrophone sensor placed in the reactor. A typical 214 dB signal is shown in the captured trace in FIG. 11. In this series of experiments with a constant 1.5 mg/L concentration, the applied power of the ozone generator was constant; i.e., it was not controlled by the feedback of the dissolved ozone concentration controller. Higher intensity of applied acoustic energy appears to correlate to an increase in ozone mass transport. Utilizing the slopes of the ozone concentration curves, one can calculate an apparent mass transfer coefficient about 40% greater for the high acoustic intensity than for the low acoustic intensity, which was nominally the same as the sparger. This effect has been noted in other applications of ozone mixing, specifically in the oxidative treatment of waste streams. Intensity of this magnitude corresponds to pressure fluctuations of over 8 psi.

[3] = system: phytoplankton; assay: flowing system (Phase II): culture tests for the presence of phytoplankton; format: cell-based; set-up: key: Bacterial growth (Bac); Phytoplankton (PHY); conditions: outlet, 125 gpm, UTS Full, ozone Full (1.0 mg/L), 8 psu; samples 3A, 4A
[4] = system: Cryptosporidium oocysts; conditions: exposure for 1 minute; cited from earlier work
[5] = system: organisms contained in the ballast water; assay: batch challenge of unfortified actual ballast water; format: cell-based
Protocol: The basic approach was evaluated with batch challenging of actual ballast water. The water came from the hold of a ship originating from Port Moin, Costa Rica. Ballast water in the ship was sampled in the Port of Philadelphia, and the biota in the samples was characterized by the Bigelow Laboratory for Ocean Sciences. About 80% of the water was taken on or exchanged in the Caribbean, while it is believed that the remaining 20% came from the port of origin. The water had been in the ballast tanks for 21 days, and total ballast capacity of the vessel was 265 cubic meters. The samples were drawn at the 73 cubic meter level.
A challenge was made of unfortified ballast water (without B. subtilis endospores) to assess the killing of organisms contained in the ballast water. For this test, an applied ozone power of 660 watts was used with 0.8 m^3hr^−1. The samples were quenched by adding 10 ml of 1% sodium thiosulfate to the 1 L HDPE collection bottles prior to collecting the samples. A control sample without ozone treatment or quenchant was submitted along with a control containing the quenchant without treatment.
The treatment times for the samples were in one-minute increments from one to five minutes.

[6] = system: invertebrates; conditions: typical applications; cited from earlier work
[7] = system: B. subtilis var. niger endospores ATCC 9372; assay: batch challenge of B. subtilis endospores in deionized buffered water, plate count; format: cell-based, Bacillus subtilis
[8] = 20° C.; cited from earlier work
[9] = outlet, 125 gpm, UTS Full, ozone Full (1.0 mg/L), 8 psu, samples 3A, 4A
[10] = sample 17A: outlet, 10 gpm, UTS Full, ozone 60.0%, 7 psu
[11] = sample 20A: outlet, 30 gpm, UTS Full, ozone 60.0%, 7 psu
[12] = sample 23A: outlet, 50 gpm, UTS Full, ozone 60.0%, 7 psu
[13] = sample 26A: outlet, 88 gpm, UTS Full, ozone 60.0%, 7 psu
[14] = sample 35A: outlet, 50 gpm, UTS Full, ozone Full (1.0 mg/L), 9 psu, one of the triplicate cultures had bacteria
[15] = sample 36A: outlet, 50 gpm, UTS Off, ozone Full (1.0 mg/L), 9 psu
[16] = sample 38A: outlet, 100 gpm, UTS Full, ozone Full (1.0 mg/L), 9 psu, triplicate
[17] = ozone power 660 watts, 0.8 m^3hr^−1, treatment 1 to 5 minutes

With O=[O+][O-] [Ozone, ozone] the “bacteria in outlet samples” value ([1]; full ozone treatment, flow rates of 30 gpm or less, 21-day incubation) was “killed all bacteria”, the “growth in M (malt broth)” value [1, 9] was “Bac” and the “growth in P (peptone broth)” value [1, 9] was “Bac”. The “growth in PM (peptonemethylamine broth)” value [1, 9] was “Bac”, the “growth in TM (test medium)” value [1, 9] was “Bac” and the “growth in M (malt broth)” value [1, 10] was “Bac”. The “growth in P (peptone broth)” value [1, 10] was “Bac”, the “growth in PM (peptonemethylamine broth)” value [1, 10] was “Bac” and the “growth in TM (test medium)” value [1, 10] was “Bac”. For the same compound, the “growth in M (malt broth)” value [1, 11] was “Bac”, the “growth in P (peptone broth)” value [1, 11] was “Bac” and the “growth in PM (peptonemethylamine broth)” value [1, 11] was “Bac”. For the same compound, the “growth in TM (test medium)” value [1, 11] was “Bac”, the “growth in M (malt broth)” value [1, 12] was “Bac” and the “growth in P (peptone broth)” value [1, 12] was “Bac”. For the same compound, the “growth in PM (peptonemethylamine broth)” value [1, 12] was “Bac”, the “growth in TM (test medium)” value [1, 12] was “Bac” and the “growth in M (malt broth)” value [1, 13] was “Bac”. The “growth in P (peptone broth)” value [1, 13] was “Bac”, the “growth in PM (peptonemethylamine broth)” value [1, 13] was “Bac” and the “growth in TM (test medium)” value [1, 13] was “Bac”. The “growth in M (malt broth)” value [1, 14] was “Bac^3”, the “growth in PM (peptonemethylamine broth)” value [1, 14] was “Bac^2” and the “growth in TM (test medium)” value [1, 14] was “Bac^3”. For the same compound, the “growth in BP” value [1, 15] was “Bac”, the “growth in M (malt broth)” value [1, 15] was “Bac” and the “growth in TM (test medium)” value [1, 15] was “Bac”. The “growth in BP” value [1, 16] was “Bac”, the “growth in M (malt broth)” value [1, 16] was “Bac” and the “growth in PM (peptonemethylamine broth)” value [1, 16] was “Bac”. For the same compound, the “growth in TM (test medium)” value [1, 16] was “Bac”, the “apparent mass transfer coefficient, increase” value [2] was “about 40%” and the “growth in Blk Sea (black sea medium, brackish at 16 psu)” value [3] was “PHY^6”. For the same compound, the “growth in DYV (DY-V medium, freshwater)” value [3] was “PHY^3”, the “growth in K (K medium, oceanic)” value [3] was “PHY^4” and the “growth in L1 + NH4 (coastal)” value [3] was “PHY^5”. For the same compound, the “growth in L1/24 (coastal at 24 psu)” value [3] was “PHY^7”, the “growth in Prov (coastal enriched with soil extract)” value [3] was “PHY^8” and the “ozone concentration killing Cryptosporidium oocysts” value [4] was “about 1.5 mg/L”. For the same compound, the “culture media tests of treated samples” value ([5]; one-minute treated sample, DYU medium, the only positive of thirty tests) was “positive growth of a green coccoid alga”, the “bacteria and zooflagellates in treated samples” value [5, 17] was “positive” and the “ciliates, dinoflagellates, nematodes in treated samples” value [5, 17] was “no ciliates, dinoflagellates, nematodes, etc., observed”. The “life in treated samples” value [5, 17] was “nearly devoid of life”, the “contact dosage needed to kill invertebrates” value [6] was about 0.3 mg/L and the “ozone concentration time value required to lower viable B. subtilis endospores by 99.9%” value ([7]; buffered water (pH 7.8), no additional ozone demand) was “about 4”. For the same compound, the “log 3 ozone concentration time value” ([7]; ozone only (diffuser), no acoustic energy, deionized water) was 4.46 and 4.5, the “log of colony forming units per mL” value ([7]; ozone setpoint 1.5 mg/L, diffuser, no acoustic energy, deionized water, at 5 minutes, about 5 at 0 minutes) was “about 2” and the “log 3 ozone concentration time value” ([7]; ozone with acoustic energy, intensity increased to 215 dB, 75 Hz, deionized water) was 4.0.

In the case of OBr [Hypobromous acid], the pKa [8] is given as 8.8.
